This is an account of results in a melting point compilation (Tetko et al.).

The structures appear in SMILES notation.

In the case of `O=C(O)CCNS(=O)(=O)c1ccc2c(c1)OCCCO2`, the melting point is 200 to 205 °C.

`Nc1ccccc1SCC(O)c1ccccc1` (stereo not drawn) returned a melting point of 61 to 63 °C. Next, `COc1cccc(-c2cc(N)n(-c3ccc(C)cc3)n2)c1`: 109 to 111 °C; `O=C(O)C1CCCc2sccc21` (stereo not drawn): 79 to 81 °C. Next, `Cc1nn(C(F)F)c(C)c1CO`: 86 to 88 °C; `O=C(O)c1cn(-c2ccccc2)nc1-c1ccc(Cl)cc1`: 246 to 248 °C.

Regarding `C=CS(=O)(=O)c1ccc(C(C)(C)C)cc1`, the melting point lay in the range of 91 to 93 °C.

Turning to `Nn1c(S)nnc1SCc1ccccc1`, the melting point was in the range of 157 to 159 °C.

For `Nc1nc(-c2ccc3c(c2)OCCO3)cs1`, the melting point was 180 to 182 °C. In the case of `O=C(O)C1CC1[N+](=O)[O-]` (stereo not drawn) it was 123 to 125 °C; in that of `CCCCOc1ccc(C(N)=O)cc1`, 162 to 164 °C. Next, `CCOC(=O)c1cc(Cl)cc(Br)c1N`: 57 to 59 °C. In the case of `O=C(O)C1=CCCSC1` it was 103 to 105 °C. Turning to `Nn1c(S)nnc1C1CCCCO1` (stereo not drawn), the melting point lay in the range of 162 to 164 °C. Next, `COc1cc(C=O)cc2c1OCO2`: 130 to 134 °C. Next, `O=Cc1cnc(-c2ccccc2)s1`: 87 to 89 °C; `Fc1ccc(NCc2cccnc2)cc1`: 89 to 91 °C. Next, `c1cc2c(cn1)CCN2`: 77 to 79 °C; `Cc1cc(C(=O)CCl)c(C)n1Cc1ccccc1`: 64 to 68 °C; `CC(C)(C)NS(=O)(=O)c1ccc(N)nc1`: 146 to 148 °C. Consider `N#Cc1ccc(S(=O)(=O)N2CCC(O)CC2)cc1`, for which the melting point lay within 161 to 163 °C. In the case of `O=C(O)c1n[nH]c(=O)[nH]c1=O` it was 224 to 226 °C. Next, `Nc1nnn[nH]1`: 200 to 204 °C. In the case of `CC(NC(N)=S)c1ccc(Cl)cc1Cl` (stereo not drawn) it was 164 to 166 °C. In turn, `Cc1nncn1C1CC1` returned a melting point of 49 to 51 °C. In the case of `CCOC(=O)c1ccc(-n2c(C)cc(C=O)c2C)cc1` it was 113 to 115 °C. In the case of `CC(C)Cc1ccc(C(=O)O)cc1` it was 144 to 146 °C; in that of `NC(=O)NCc1ccc([N+](=O)[O-])cc1`, 199 to 201 °C. `CNC(=Nc1cc(C)nn1-c1ccccc1)c1ccc(F)cc1` yielded a melting point of 227 to 228 °C.

In turn, `Cc1c(F)ccc2sc(N)nc12` had a melting point of 174 to 176 °C. Next, `COc1cc2nc(N3CCN(C(=O)C4COc5ccccc5O4)CC3)nc(N)c2cc1OC` (stereo not drawn): 279 to 281 °C. Compound `OCc1nnc(-c2ccccc2)o1` returned a melting point of 129 to 131 °C. As for `COCc1cccc2sc(N)nc12`, the melting point was 139 to 141 °C.

The compound `COc1ccc(C(C)=O)cc1CSCC(=O)O` displayed a melting point of 106 to 108 °C. The compound `CCOC(=O)c1c(C)[nH]c(C(=O)CCl)c1C` showed a melting point of 188 to 190 °C. Next, `O=C(O)c1ccc(N2C(=O)C=CC2=O)cc1`: 229 to 231 °C. Take `NC(=O)c1ccc(F)cc1Br`: the melting point was 163 to 165 °C. Compound `COCCOc1cc(C(=O)O)nc2ccccc12` registered a melting point of 179 to 181 °C. Take `CNS(=O)(=O)c1cc(/C=C/C(=O)O)ccc1OC`: the melting point was 238 to 240 °C.

`Cc1ccc(-n2cc(C=O)c(C(C)(C)C)n2)cc1` registered a melting point of 79 to 81 °C.

The compound `O=c1[nH]nnc2c1cnn2-c1ccccc1` returned a melting point of 144 to 146 °C. In the case of `O=C(O)c1cc(F)cc2[nH]cnc12` it was 339 to 341 °C; in that of `CC(C)CNCC(O)c1ccccc1` (stereo not drawn), 61 to 63 °C; in that of `Sc1ccc2c(c1)OCCCO2`, 41 to 43 °C.

The compound `CC(C)c1nc(C(=O)O)nn1-c1ccccc1F` showed a melting point of 159 to 161 °C.

Turning to `O=C(O)c1ccc2c(c1)ncn2Cc1ccccc1`, the melting point was in the range of 102 to 104 °C. For `Cc1nc(-c2cccs2)c(CC(=O)O)s1`, the melting point was in the range of 159 to 161 °C. The compound `O=C(O)CCC(=O)Nc1sc2c(c1C(=O)NCC1CCCO1)CCCC2` (stereo not drawn) displayed a melting point of 151 to 153 °C. Next, `CNC(=O)CCC(F)(F)F`: 111 to 113 °C; `Cc1cc(C(=O)O)c2cnn(C(C)C)c2n1`: 172 to 174 °C; `CCc1cccc(Oc2ccc(F)cc2C=CC(=O)O)c1`: 106 to 108 °C.

Compound `O=C1NC(=O)C(c2ccc(Cl)cc2Cl)N1` (stereo not drawn) yielded a melting point of 179 to 181 °C.

Take `COC(=O)c1cc(N)cc(F)c1F`: the melting point lay in the range of 89 to 91 °C.

As for `CNC(=O)c1cc2ccccc2[nH]1`, the melting point was 221 to 223 °C. In the case of `CCNC(=S)n1ncc(C(=O)OCC)c1N` it was 92 to 96 °C; in that of `CC1CNc2cccnc2O1` (stereo not drawn), 132 to 134 °C. Next, `Cc1ccc(S(=O)(=O)c2ccc(CBr)cc2)cc1`: 137 to 139 °C; `Nc1ccc(NC(=O)N2CCCCCC2)cc1`: 132 to 134 °C.

As to `CC(C)Nc1ccc(S(C)(=O)=O)cc1`, the melting point was in the range of 111 to 113 °C. Next, `NS(=O)(=O)c1ccc(C(F)(F)F)cn1`: 174 to 176 °C; `CCOC(=O)N1CCc2nnc(Cl)cc2C1`: 106 to 108 °C; `CC(=O)CC(=O)Nc1ccc2nc(C)sc2c1`: 129 to 131 °C. With `Cc1ccc(-n2c(C)cc(CC(=O)O)c2C)cc1`, the melting point is 50 to 52 °C. Next, `COCCNC(=O)CC#N`: 78 to 80 °C. In the case of `Nc1cc(I)ccc1O` it was 135 to 137 °C.

Compound `O=C(NCCO)c1ccncc1` gave a melting point of 136 to 138 °C. In the case of `COc1cc(NC(C)=O)c(C(=O)O)cc1OC` it was 229 to 231 °C. With `O=S1(=O)C=CCC1`, the melting point was in the range of 62 to 64 °C.

In the case of `CC(=O)N1CCCCC1CC(=O)O` (stereo not drawn), the melting point fell in the range of 112 to 114 °C. In the case of `Nc1ccc(S(N)(=O)=O)cc1Cl` it was 156 to 158 °C.

The compound `COc1ccccc1-c1nnc(S)n1C` registered a melting point of 177 to 179 °C.

Compound `O=C(O)C1(C(=O)Nc2ccc(F)cc2)CC1` displayed a melting point of 179 to 181 °C. Next, `Cc1cccc(NC(=O)Nc2cccc(CN)c2)c1`: 163 to 165 °C; `Cc1nc(C(C)(C)O)n[nH]1`: 185 to 187 °C; `Nc1ccc(N2CCCC2)nc1`: 83 to 85 °C.

With `Cc1sc(NC(=O)CCl)nc1-c1ccc(Cl)cc1`, the melting point is 176 to 178 °C. `O=C(Nc1ccc(Br)cc1Cl)OCC(F)(F)F` returned a melting point of 70 to 72 °C. The compound `CCc1noc(-c2cc(Cl)ccc2N)n1` returned a melting point of 107 to 109 °C. In the case of `COc1ccc(CNc2cnn(C)c2)c(OC)c1` it was 81 to 83 °C.

The compound `O=c1nc2ccccc2c(-c2ccccc2)[nH]1` displayed a melting point of 254 to 256 °C. In the case of `CN(C1CCCCC1)S(=O)(=O)c1ccc(N)cc1` it was 142 to 144 °C. `O=C(CC(F)(F)F)c1cc(F)ccc1F` returned a melting point of 45 to 47 °C. Next, `CCN(CC)CC(=O)Nc1ccc(C(F)(F)F)cc1N`: 94 to 96 °C; `Cc1ccc2sc(C3CCNCC3)nc2c1`: 111 to 113 °C; `CCOc1ccc(NC(N)=S)cc1`: 164 to 166 °C.

`COCCOc1cc2c(cc1C=O)OCO2`: the melting point was 84 to 86 °C. On to `CC(Cl)C(=O)NC(C)c1ccc2c(c1)OCCO2` (stereo not drawn), for which the melting point was 110 to 112 °C. Next, `COc1cccc(Cl)c1C(=O)O`: 140 to 142 °C. Compound `NC(=O)CCn1c(S)nnc1-c1cccs1` displayed a melting point of 219 to 221 °C.

Turning to `Sc1nncn1C1CC1`, the melting point was in the range of 189 to 191 °C. In the case of `COc1ccc(Cl)cc1CO` it was 56 to 61 °C; in that of `CC(C)(C)OC(=O)NCCOc1ccc(N)cc1`, 73 to 75 °C; in that of `COc1cc(C)c(C(=O)O)cc1OC`, 146 to 148 °C. Next, `N#Cc1cccc(OCC(=O)NC2CC2)c1`: 106 to 108 °C; `CC1CC(=O)N(Cc2ccccc2)c2ccccc2N1` (stereo not drawn): 110 to 112 °C; `O=C(O)c1cncc(N2CCOCC2)c1`: 258 to 260 °C.

The compound `CCCCCCCOc1ccc(C=O)cc1OCC` had a melting point of 43 to 47 °C. In the case of `CC(=O)Nc1ccc(CCN)cc1` it was 121 to 123 °C; in that of `CN(C)C(=O)c1cccc(N)c1`, 84 to 86 °C.

`O=C(O)C=Cc1cc(Cl)ccc1OCc1ccccc1Br`: the melting point fell in the range of 207 to 209 °C.

As for `CCOC(=O)N1CCCC(C(=O)O)C1` (stereo not drawn), the melting point was 68 to 70 °C. Next, `Nc1cc2c(cc1N)OCC(=O)N2`: 252 to 254 °C; `COc1ccc(N)cc1S(=O)(=O)NC1CC1`: 163 to 165 °C; `CCOc1ccc2c(c1)C(=O)NC2=O`: 159 to 161 °C. Next, `O=C(O)CCc1nnc(-c2ccc(Cl)cc2)o1`: 159 to 161 °C. Next, `Cc1cccc2nc(CCl)cc(=O)n12`: 120 to 122 °C; `CCOC(=O)c1c(N)sc2c1CCN(C(C)C)C2`: 81 to 83 °C; `O=C(O)Cc1ccc(S(=O)(=O)Cl)s1`: 85 to 87 °C. Regarding `O=C(O)c1ccccc1OCc1ccccc1Cl`, the melting point lay in the range of 119 to 121 °C.

`CC(Sc1ccccn1)C(=O)O` (stereo not drawn) came in with a melting point of 70 to 72 °C. Regarding `CCN(CC)S(=O)(=O)c1ccc(N2CCCCC2)c(C(=O)O)c1`, the melting point fell in the range of 157 to 159 °C. Next, `CCN(CC)S(=O)(=O)c1ccc(NCCO)c(N)c1`: 157 to 159 °C; `CSc1ccc(-c2csc(N)n2)cc1`: 219 to 221 °C; `Cn1c(-c2ccccc2)c(Br)c2ccccc21`: 59 to 61 °C. Next, `CN(C)C(Cc1ccccc1)C(=O)O` (stereo not drawn): 225 to 227 °C; `Cc1cc(C(=O)O)cc([N+](=O)[O-])c1`: 169 to 171 °C.

Compound `Cc1ccc(-n2c(S)nnc2-c2ccc(Cl)cc2)cc1` had a melting point of 141 to 143 °C.

`NCCS(=O)(=O)N1CCSCC1`: the melting point fell in the range of 59 to 61 °C. Next, `O=C(O)c1c(O)cc(F)cc1F`: 182 to 184 °C; `Cn1ccc(C(=O)CCl)c1`: 49 to 51 °C. Next, `NC(=O)c1ccc(OCCCl)cc1`: 182 to 184 °C; `CCCc1nc(C(=O)O)nn1-c1ccccc1Cl`: 142 to 144 °C; `COCC1(C)CNC(=O)C1` (stereo not drawn): 62 to 64 °C.
